Key:
Assay type in all cases: in vivo
[1] = tested on: morningglory (Ipomoea hederacea); test: Test C preemergence; details: for Plant response rating, Morningglory: scale 0 to 100, 0 no effect, 100 complete control
Description: (§1) Seeds of plant species selected from bermudagrass (Cynodon dactylon), Surinam grass (Brachiaria decumbens), cocklebur (Xanthium strumarium), corn (Zea mays), crabgrass (Digitaria sanguinalis), woolly cupgrass (Eriochloa villosa), giant foxtail (Setaria faberii), goosegrass (Eleusine indica), johnsongrass (Sorghum halepense), kochia (Kochia scoparia), lambsquarters (Chenopodium album), morningglory (Ipomoea hederacea), yellow nutsedge (Cyperus esculentus), pigweed (Amaranthus retroflexus), common ragweed (Ambrosia elatior), soybean (Glycine max) and velvetleaf (Abutilon theophrasti) were planted and treated preemergence with test chemicals formulated in a non-phytotoxic solvent mixture which included a surfactant.
(§2) At the same time, plants selected from these crop and weed species and also winter barley (Hordeum vulgare), blackgrass (Alopecurus myosuroides), canary grass (Phalaris minor), chickweed (Stellaria media), downy brome (Bromus tectorum), green foxtail (Setaria viridis), Italian ryegrass (Lolium multiflorum), wheat (Triticum aestivum), wild oat (Avena fatua) and windgrass (Apera spica-venti) were treated with postemergence applications of some of the test chemicals formulated in the same manner. Plants ranged in height from 2 to 18 cm (1- to 4-leaf stage) for postemergence treatments. Plant species in the flooded paddy test consisted of rice (Oryza saliva), smallflower flatsedge (Cyperus difformis), duck salad (Heteranthera limosa) and barnyardgrass (Echinochloa crus-galli) grown to the 2-leaf stage for testing. Treated plants and controls were maintained in a greenhouse for 12 to 14 days, after which time all species were compared to controls and visually evaluated. Plant response ratings, summarized in Table C, are based on a scale of 0 to 100 where 0 is no effect and 100 is complete control. A dash (-) response means no test result.

[2] = tested on: cocklebur (Xanthium strumarium); test: Test C preemergence; details: for Plant response rating, Cocklebur: scale 0 to 100, 0 no effect, 100 complete control; for Plant response rating (0 to 100), Cocklebur: preemergence, visual evaluation after 12 to 14 days
Description: as §1, §2

[3] = tested on: johnsongrass (Sorghum halepense); test: Test C preemergence; details: for Plant response rating, Johnsongrass: scale 0 to 100, 0 no effect, 100 complete control; for Plant response rating (0 to 100), Johnsongrass: preemergence, visual evaluation after 12 to 14 days
Description: as §1, §2

[4] = tested on: lambsquarters (Chenopodium album); test: Test C preemergence; details: for Plant response rating, Lambsquarters: scale 0 to 100, 0 no effect, 100 complete control
Description: as §1, §2

Nightshade = test: Test C preemergence; details: scale 0 to 100, 0 no effect, 100 complete control
Description: as §1, §2

[5] = tested on: Surinam grass (Brachiaria decumbens); test: Test C preemergence; details: for Plant response rating, Surinam grass: scale 0 to 100, 0 no effect, 100 complete control; for Plant response rating (0 to 100), Surinam grass: preemergence, visual evaluation after 12 to 14 days
Description: as §1, §2

[6] = tested on: yellow nutsedge (Cyperus esculentus); test: Test C preemergence; details: for Plant response rating, Nutsedge: scale 0 to 100, 0 no effect, 100 complete control
Description: as §1, §2

[7] = tested on: crabgrass (Digitaria sanguinalis); test: Test C preemergence; details: for Plant response rating, Crabgrass: scale 0 to 100, 0 no effect, 100 complete control; for Plant response rating (0 to 100), Crabgrass: preemergence, visual evaluation after 12 to 14 days
Description: as §1, §2

[8] = tested on: velvetleaf (Abutilon theophrasti); test: Test C preemergence; details: for Plant response rating, Velvetleaf: scale 0 to 100, 0 no effect, 100 complete control
Description: as §1, §2

[9] = tested on: woolly cupgrass (Eriochloa villosa); test: Test C preemergence; details: for Plant response rating, Cupgrass, Woolly: scale 0 to 100, 0 no effect, 100 complete control; for Plant response rating (0 to 100), Cupgrass, Woolly: preemergence, visual evaluation after 12 to 14 days
Description: as §1, §2

soybean (Glycine max) = test: Test C preemergence; details: for Plant response rating, Soybean: scale 0 to 100, 0 no effect, 100 complete control
Description: as §1, §2

Sunflower [10] = test: Test C preemergence; details: Rate 125 g/ha; scale 0 to 100, 0 no effect, 100 complete control
Description: as §1, §2

[11] = tested on: bermudagrass (Cynodon dactylon); test: Test C preemergence; details: for Plant response rating, Bermudagrass: scale 0 to 100, 0 no effect, 100 complete control; for Plant response rating (0 to 100 where 0 is no effect and 100 is complete control), Bermudagrass: preemergence, visual evaluation after 12 to 14 days
Description: as §1, §2

[12] = tested on: goosegrass (Eleusine indica); test: Test C preemergence; details: for Plant response rating, Goosegrass: scale 0 to 100, 0 no effect, 100 complete control; for Plant response rating (0 to 100), Goosegrass: preemergence, visual evaluation after 12 to 14 days
Description: as §1, §2

corn (Zea mays) = test: Test C preemergence; details: for Plant response rating, Corn: scale 0 to 100, 0 no effect, 100 complete control; for Plant response rating (0 to 100), Corn: preemergence, visual evaluation after 12 to 14 days
Description: as §1, §2

[13] = tested on: giant foxtail (Setaria faberii); test: Test C preemergence; details: for Plant response rating, Foxtail, Giant: scale 0 to 100, 0 no effect, 100 complete control; for Plant response rating (0 to 100), Foxtail, Giant: preemergence, visual evaluation after 12 to 14 days
Description: as §1, §2

[14] = tested on: pigweed (Amaranthus retroflexus); test: Test C preemergence; details: for Plant response rating, Pigweed: scale 0 to 100, 0 no effect, 100 complete control
Description: as §1, §2

kochia (Kochia scoparia) = test: Test C preemergence; details: for Plant response rating, Kochia: scale 0 to 100, 0 no effect, 100 complete control; for Plant response rating (0 to 100), Kochia: preemergence, visual evaluation after 12 to 14 days
Description: as §1, §2

Sunflower [15] = test: Test C preemergence; details: Rate 500 g/ha, visual evaluation after 12 to 14 days
[16] = tested on: smallflower flatsedge (Cyperus difformis); test: Test C flooded paddy test; details: for Flatsedge plant response rating: Flooded Paddy, scale 0 to 100, 0 no effect, 100 complete control; for Plant response rating, Flatsedge: flooded paddy test, scale 0 to 100 (0 no effect, 100 complete control)
Method in brief: (§3)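 Visually assessed vs untreated controls 12–14 d post-treatment (greenhouse). Flooded paddy plants were at the 2-leaf stage; scale 0 = no effect, 100 = complete control.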

[17] = tested on: barnyardgrass (Echinochloa crus-galli); test: Test C flooded paddy test; details: for Barnyardgrass plant response rating: Flooded Paddy, scale 0 to 100, 0 no effect, 100 complete control; for Plant response rating, Barnyardgrass: flooded paddy test, scale 0 to 100 (0 no effect, 100 complete control)
Method in brief: as §3

[18] = tested on: duck salad (Heteranthera limosa); test: Test C flooded paddy test; details: for Ducksalad plant response rating: Flooded Paddy, scale 0 to 100, 0 no effect, 100 complete control; for Plant response rating, Ducksalad: flooded paddy test, scale 0 to 100 (0 no effect, 100 complete control)
Method in brief: as §3

[19] = preemergence, Rate 500 g/ha, visual evaluation after 12 to 14 days

Compound: CC(C)(C)c1ccn(C2CCN(c3cccc(OC(F)F)c3)C2=O)n1 (stereo not drawn) [Compound 76]
- Plant response rating, Morningglory ([1]; Rate 62 g/ha): 10
- Plant response rating, Morningglory ([1]; Rate 125 g/ha): 30
- Plant response rating (0 to 100), Morningglory [1, 19]: 30
- Plant response rating, Morningglory ([1]; preemergence, Rate 250 g/ha): 30
- Plant response rating, Cocklebur ([2]; Rate 62 g/ha): 0
- Plant response rating, Cocklebur ([2]; Rate 125 g/ha): 0
- Plant response rating (0 to 100), Cocklebur ([2]; Rate 250 g/ha): 20
- Plant response rating (0 to 100), Cocklebur ([2]; Rate 500 g/ha): 20
- Plant response rating, Johnsongrass ([3]; Rate 62 g/ha): 20
- Plant response rating, Johnsongrass ([3]; Rate 125 g/ha): 30
- Plant response rating (0 to 100), Johnsongrass ([3]; Rate 250 g/ha): 40
- Plant response rating (0 to 100), Johnsongrass ([3]; Rate 500 g/ha): 100
- Plant response rating, Lambsquarters ([4]; Rate 62 g/ha): 100
- Plant response rating, Lambsquarters ([4]; Rate 125 g/ha): 100
- Plant response rating (0 to 100), Lambsquarters [4, 19]: 100
- Plant response rating, Lambsquarters ([4]; preemergence, Rate 250 g/ha): 100
- Plant response rating, Nightshade (Nightshade; Rate 62 g/ha): 0
- Plant response rating, Nightshade (Nightshade; Rate 125 g/ha): 30
- Plant response rating, Nightshade (Nightshade; Rate 250 g/ha): 40
- Plant response rating, Surinam grass ([5]; Rate 62 g/ha): 50
- Plant response rating, Surinam grass ([5]; Rate 125 g/ha): 60
- Plant response rating (0 to 100), Surinam grass ([5]; Rate 250 g/ha): 80
- Plant response rating (0 to 100), Surinam grass ([5]; Rate 500 g/ha): 100
- Plant response rating, Nutsedge ([6]; Rate 62 g/ha): 0
- Plant response rating, Nutsedge ([6]; Rate 125 g/ha): 0
- Plant response rating (0 to 100), Nutsedge [6, 19]: 20
- Plant response rating, Nutsedge ([6]; preemergence, Rate 250 g/ha): 20
- Plant response rating, Crabgrass ([7]; Rate 62 g/ha): 100
- Plant response rating, Crabgrass ([7]; Rate 125 g/ha): 100
- Plant response rating (0 to 100), Crabgrass ([7]; Rate 250 g/ha): 100
- Plant response rating (0 to 100), Crabgrass ([7]; Rate 500 g/ha): 100
- Plant response rating, Velvetleaf ([8]; Rate 125 g/ha): 20
- Plant response rating (0 to 100), Velvetleaf [8, 19]: 50
- Plant response rating, Velvetleaf ([8]; preemergence, Rate 250 g/ha): 20
- Plant response rating, Cupgrass, Woolly ([9]; Rate 62 g/ha): 50
- Plant response rating, Cupgrass, Woolly ([9]; Rate 125 g/ha): 100
- Plant response rating (0 to 100), Cupgrass, Woolly ([9]; Rate 250 g/ha): 100
- Plant response rating (0 to 100), Cupgrass, Woolly ([9]; Rate 500 g/ha): 100
- Plant response rating, Soybean (soybean (Glycine max); Rate 125 g/ha): 0
- Plant response rating (0 to 100), Soybean (soybean (Glycine max); [19]): 0
- Plant response rating, Soybean (soybean (Glycine max); preemergence, Rate 250 g/ha): 0
- Plant response rating, Sunflower (Sunflower [10]): 20
- Plant response rating, Bermudagrass ([11]; Rate 62 g/ha): 100
- Plant response rating, Bermudagrass ([11]; Rate 125 g/ha): 100
- Plant response rating (0 to 100 where 0 is no effect and 100 is complete control), Bermudagrass ([11]; Rate 250 g/ha): 100
- Plant response rating (0 to 100 where 0 is no effect and 100 is complete control), Bermudagrass ([11]; Rate 500 g/ha): 100
- Plant response rating, Goosegrass ([12]; Rate 62 g/ha): 100
- Plant response rating, Goosegrass ([12]; Rate 125 g/ha): 100
- Plant response rating (0 to 100), Goosegrass ([12]; Rate 250 g/ha): 100
- Plant response rating (0 to 100), Goosegrass ([12]; Rate 500 g/ha): 100
- Plant response rating, Corn (corn (Zea mays); Rate 62 g/ha): 20
- Plant response rating, Corn (corn (Zea mays); Rate 125 g/ha): 20
- Plant response rating (0 to 100), Corn (corn (Zea mays); Rate 250 g/ha): 20
- Plant response rating (0 to 100), Corn (corn (Zea mays); Rate 500 g/ha): 80
- Plant response rating, Foxtail, Giant ([13]; Rate 62 g/ha): 100
- Plant response rating, Foxtail, Giant ([13]; Rate 125 g/ha): 100
- Plant response rating (0 to 100), Foxtail, Giant ([13]; Rate 250 g/ha): 20
- Plant response rating (0 to 100), Foxtail, Giant ([13]; Rate 500 g/ha): 90
- Plant response rating, Pigweed ([14]; Rate 125 g/ha): 100
- Plant response rating (0 to 100), Pigweed [14, 19]: 100
- Plant response rating, Pigweed ([14]; preemergence, Rate 250 g/ha): 0
- Plant response rating, Kochia (kochia (Kochia scoparia); Rate 62 g/ha): 100
- Plant response rating, Kochia (kochia (Kochia scoparia); Rate 125 g/ha): 100
- Plant response rating (0 to 100), Kochia (kochia (Kochia scoparia); Rate 250 g/ha): 100
- Plant response rating (0 to 100), Kochia (kochia (Kochia scoparia); Rate 500 g/ha): 100
- Plant response rating (0 to 100), Sunflower (Sunflower [15]): 30
- Flatsedge plant response rating ([16]; Rate 250 g/ha): 90
- Flatsedge plant response rating ([16]; Rate 500 g/ha): 90
- Plant response rating, Flatsedge ([16]; Rate 62 g/ha): 90
- Plant response rating, Flatsedge ([16]; Rate 125 g/ha): 90
- Barnyardgrass plant response rating ([17]; Rate 250 g/ha): 90
- Barnyardgrass plant response rating ([17]; Rate 500 g/ha): 90
- Plant response rating, Barnyardgrass ([17]; Rate 62 g/ha): 40
- Plant response rating, Barnyardgrass ([17]; Rate 125 g/ha): 90
- Ducksalad plant response rating ([18]; Rate 250 g/ha): 80
- Ducksalad plant response rating ([18]; Rate 500 g/ha): 100
- Plant response rating, Ducksalad ([18]; Rate 62 g/ha): 30
- Plant response rating, Ducksalad ([18]; Rate 125 g/ha): 80

Source: patent US7138361B2, “Herbicidal heterocycles” (E. I. du Pont de Nemours and Company, priority 2000, dated 2006)
